Results on seven compounds are retold here after patent publication US20240142437A1, “METHODS TO PREVENT TERATOGENICITY OF IMID LIKE MOLECULES AND IMID BASED DEGRADERS/PROTACS” (DANA-FARBER CANCER INSTITUTE, INC., priority 2017, published 2024).

Some results are limits rather than exact numbers.

For data set [1], the system named is IMiD-dependent CRL4^CRBN substrates. As to the kind of experiment: TMT quantification mass spectrometry proteomics, IMiD-dependent neo-substrates (hESC, Kelly, SK-N-DZ, MM1s cells). It is filed as cell-based, human. The following applies: for substrate specificity: proteins degraded across cell lines: hESC, MM1s, Kelly, SK-N-DZ cells expressing detectable levels of the proteins; for number of substrates identified (rank order): proteomics, treatment with different IMiDs. The protocol: Since degradation is mediated through CRL4^CRBN, and because CRBN expression levels are high in the central nervous system (CNS), the effects of IMiDs were assessed in two different neuroblastoma cell lines, Kelly and SK-N-DZ cells, as well as the commonly used multiple myeloma cell line, MM1s, as a control.
Proteins were precipitated using methanol/chloroform.

The target in a further data set is T1, SALL4 (Homo sapiens, UniProt Q96SW2+Q9UJQ4).
T1 construct: endogenous in cells; host or cells: Kelly, SK-N-DZ, HEK293T (western blot)
T1 sequence (Q9UJQ4 whole entry): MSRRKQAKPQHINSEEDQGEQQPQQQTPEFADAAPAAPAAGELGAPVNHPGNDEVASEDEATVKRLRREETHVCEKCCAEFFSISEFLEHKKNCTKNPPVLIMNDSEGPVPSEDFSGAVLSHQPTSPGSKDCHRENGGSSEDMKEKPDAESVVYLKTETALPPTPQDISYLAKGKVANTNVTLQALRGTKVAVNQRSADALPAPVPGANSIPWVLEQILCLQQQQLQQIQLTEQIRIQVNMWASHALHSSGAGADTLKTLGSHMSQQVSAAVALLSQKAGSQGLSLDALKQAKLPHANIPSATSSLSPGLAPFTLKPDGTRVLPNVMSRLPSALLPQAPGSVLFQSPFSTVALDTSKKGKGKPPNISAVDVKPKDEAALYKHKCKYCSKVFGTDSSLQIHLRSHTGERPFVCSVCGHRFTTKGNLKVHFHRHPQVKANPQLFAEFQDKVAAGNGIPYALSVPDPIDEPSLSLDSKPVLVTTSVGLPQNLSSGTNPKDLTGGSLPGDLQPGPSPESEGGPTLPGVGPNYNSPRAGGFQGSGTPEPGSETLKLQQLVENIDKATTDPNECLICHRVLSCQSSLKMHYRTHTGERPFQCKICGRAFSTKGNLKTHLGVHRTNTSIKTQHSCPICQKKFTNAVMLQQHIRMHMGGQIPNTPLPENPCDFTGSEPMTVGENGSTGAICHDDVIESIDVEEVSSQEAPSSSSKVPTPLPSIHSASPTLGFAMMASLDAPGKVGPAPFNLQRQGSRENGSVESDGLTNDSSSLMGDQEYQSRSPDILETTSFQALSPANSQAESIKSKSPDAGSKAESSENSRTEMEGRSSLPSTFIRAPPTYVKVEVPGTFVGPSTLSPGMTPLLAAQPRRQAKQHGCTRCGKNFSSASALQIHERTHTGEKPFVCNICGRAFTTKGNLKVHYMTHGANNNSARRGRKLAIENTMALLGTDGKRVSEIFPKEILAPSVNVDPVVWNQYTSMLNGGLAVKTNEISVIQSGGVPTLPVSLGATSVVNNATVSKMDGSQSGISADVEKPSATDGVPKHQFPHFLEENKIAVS
T1 sequence (Q96SW2 whole entry): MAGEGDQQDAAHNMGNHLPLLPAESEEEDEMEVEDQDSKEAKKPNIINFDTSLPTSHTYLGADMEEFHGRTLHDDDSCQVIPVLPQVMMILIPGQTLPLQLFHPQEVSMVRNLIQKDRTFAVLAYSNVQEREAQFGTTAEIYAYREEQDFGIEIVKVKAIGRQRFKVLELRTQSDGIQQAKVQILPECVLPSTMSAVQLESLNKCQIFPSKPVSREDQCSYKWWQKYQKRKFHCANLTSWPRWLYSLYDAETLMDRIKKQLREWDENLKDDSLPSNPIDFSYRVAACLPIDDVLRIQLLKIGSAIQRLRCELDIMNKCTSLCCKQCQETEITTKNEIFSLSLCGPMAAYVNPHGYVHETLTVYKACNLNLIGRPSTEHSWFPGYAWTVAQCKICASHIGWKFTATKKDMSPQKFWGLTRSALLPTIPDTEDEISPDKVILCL
T1 sequence (Q16531 2-1140 partner limits assumed): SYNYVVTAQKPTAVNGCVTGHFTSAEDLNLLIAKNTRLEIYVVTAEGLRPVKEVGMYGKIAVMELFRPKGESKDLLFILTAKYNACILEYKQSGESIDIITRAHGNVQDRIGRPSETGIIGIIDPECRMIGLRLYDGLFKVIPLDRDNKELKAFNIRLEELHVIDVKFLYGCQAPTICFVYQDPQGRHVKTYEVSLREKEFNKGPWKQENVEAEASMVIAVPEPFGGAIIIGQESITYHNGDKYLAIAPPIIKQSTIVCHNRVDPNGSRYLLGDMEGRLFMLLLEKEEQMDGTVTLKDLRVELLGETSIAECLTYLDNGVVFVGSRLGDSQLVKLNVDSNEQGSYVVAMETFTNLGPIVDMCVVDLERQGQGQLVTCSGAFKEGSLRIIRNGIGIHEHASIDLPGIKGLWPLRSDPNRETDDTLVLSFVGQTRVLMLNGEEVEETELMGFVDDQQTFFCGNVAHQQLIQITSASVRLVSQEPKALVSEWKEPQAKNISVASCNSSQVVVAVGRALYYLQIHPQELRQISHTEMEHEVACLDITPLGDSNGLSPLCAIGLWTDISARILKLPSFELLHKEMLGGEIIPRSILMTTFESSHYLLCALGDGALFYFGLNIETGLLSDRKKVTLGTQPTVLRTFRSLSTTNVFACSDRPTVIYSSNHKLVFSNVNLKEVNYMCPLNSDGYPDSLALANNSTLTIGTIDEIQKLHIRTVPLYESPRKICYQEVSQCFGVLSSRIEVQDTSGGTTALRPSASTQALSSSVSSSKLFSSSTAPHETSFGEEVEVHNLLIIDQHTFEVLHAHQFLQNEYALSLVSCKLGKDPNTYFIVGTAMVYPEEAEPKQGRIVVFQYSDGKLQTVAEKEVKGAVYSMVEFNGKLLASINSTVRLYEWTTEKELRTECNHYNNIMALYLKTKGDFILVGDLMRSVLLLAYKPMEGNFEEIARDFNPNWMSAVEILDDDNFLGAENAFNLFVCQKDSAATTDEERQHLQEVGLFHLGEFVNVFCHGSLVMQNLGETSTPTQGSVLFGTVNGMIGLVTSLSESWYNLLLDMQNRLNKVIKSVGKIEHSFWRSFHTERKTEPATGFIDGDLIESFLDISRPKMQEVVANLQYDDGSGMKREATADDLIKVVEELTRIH
Briefly: Western blot of SALL4 protein levels in human cell lines. Type of data set: cell-based. The following applies: for effect of co-treatment on IMiD-induced SALL4 degradation: co-treatment with thalidomide, 5 μM bortezomib, 5 μM MLN4924, 0.5 μM MLN7243, HEK293T, SK-N-DZ cells; for SALL4 degradation in CRBN−/− cells: CRBN−/− Kelly and HEK293T cells; for SALL4 protein levels by western blot: 24 hours. As to the method:
HEK293T cells were cultured in DMEM supplemented with 10% dialyzed fetal bovine serum (FBS) and 2 mM L-Glutamine. SK-N-DZ cells were cultured in DMEM supplemented with 10% dialyzed FBS, 0.1 mM Non-Essential Amino Acids (NEAA) and 2 mM L-Glutamine. H661, MM1s and Kelly cells were cultured in RPMI1640 supplemented with 10% dialyzed FBS. H9 hESC cells were cultured in Essential 8 (Gibco) media on Matrigel-coated nunc tissue culture plates.
(§1) Samples were run on 4-20%, AnyKD or 10% (in-vitro ubiqutination assay) SDS-PAGE Gels (Bio-rad), and transferred to PVDF membranes using the iBlot 2.0 dry blotting system (Thermo Fisher Scientific). Membranes were blocked with LiCor blocking solution (LiCor), and incubated with primary antibodies overnight, followed by three washes in LiCor blocking solution and incubation with secondary antibodies for one hour in the dark. After three final washes, the membranes were imaged on a LiCor fluorescent imaging station (LiCor). When Anti-mouse IgG, HRP Antibody was used, after three washes, the membranes were incubated with Amersham ECL Prime Western Blotting Detection Reagent for 1 minute and subjected to imaging by Amersham Imager 600 (GE).
On the technique in general: A western blot detects proteins with antibodies after separation by electrophoresis.

The conditions of data set [2]: cited from earlier work; for plasma half-life (t1/2) / Cmax: typical dose of 200-400 mg, 25 mg, or 2 mg for thalidomide, lenalidomide, or pomalidomide; for Cmax: read-out: maximum plasma concentration (Cmax).
The target in data set [3] is SALL4 ZnF domains and DDB1ΔB-CRBN (Homo sapiens, UniProt Q96SW2+Q9UJQ4). As to the kind of experiment: TR-FRET in vitro CRBN binding assay. As to conditions: SALL4ZnF2; in accordance with cellular potency in degradation of SALL4. As to the method:
Before TR-FRET measurements were conducted, the reactions were incubated for 15 minutes at RT. […] The TR-FRET signal of each data point was extracted by calculating the 520/490 nm ratios.
For orientation: TR-FRET usually uses a lanthanide donor and a delayed reading to cut background.

For the next data set, the target named is T2, mmSALL4 (Mus musculus, UniProt Q8BX22).
T2 construct: endogenous in cells; host or cells: TC1 mouse embryonic stem cells
As to the kind of experiment: Western blot of mmSALL4 in mouse embryonic stem cells. Type of data set: cell-based. The following applies: mESC, increasing concentrations, 24 hours. As to the method: HEK293T cells were cultured in DMEM supplemented with 10% dialyzed fetal bovine serum (FBS) and 2 mM L-Glutamine. SK-N-DZ cells were cultured in DMEM supplemented with 10% dialyzed FBS, 0.1 mM Non-Essential Amino Acids (NEAA) and 2 mM L-Glutamine. H661, MM1s and Kelly cells were cultured in RPMI1640 supplemented with 10% dialyzed FBS. H9 hESC cells were cultured in Essential 8 (Gibco) media on Matrigel-coated nunc tissue culture plates. TC1 mouse embryonic stem cells (mESCs) were adapted to gelatin cultures and fed with KO-DMEM (Gibco) supplemented with 15% stem cell-qualified fetal bovine serum (FBS, Gemini), 2 mM L-glutamine (Gibco), 20 mM HEPES (Gibco), 1 mM sodium pyruvate (Gibco), 0.1 mM of each non-essential amino acids (Gibco), 0.1 mM 2-mercaptoethanol (Sigma), […] mLIF (Gemini).
Cells were treated with compounds as indicated and incubated for 24 hours, or as indicated. Samples were run on 4-20%, AnyKD or 10% (in-vitro ubiqutination assay) SDS-PAGE Gels (Bio-rad), and transferred to PVDF membranes using the iBlot 2.0 dry blotting system (Thermo Fisher Scientific). Membranes were blocked with LiCor blocking solution (LiCor), and incubated with primary antibodies overnight, followed by three washes in LiCor blocking solution and incubation with secondary antibodies for one hour in the dark. […]

For another data set, the target named is Flag-mmSALL4 (UniProt Q8BX22+Q96SW2). Briefly: Western blot of transiently transfected Flag-mmSALL4 in Kelly cells. Type of data set: cell-based, mouse. The following applies: Y415F, P418S, I419V, L430F, Q435H. As to the method:
as §1, with “Cells were treated with compounds as indicated and incubated for 24 hours, or as indicated. Samples” for “Samples”
(§2) hsCRBN, hsSALL4, mmSALL4 and drSALL4 were PCR amplified and cloned into a pNTM-Flag based vector. Mutagenesis was performed using the Q5 site-directed mutagenesis kit (NEB, USA) with primers designed using the BaseChanger web server (http://nebasechanger.neb.com/).
For transient transfection, 0.2 million cells were seeded per well in a 12 well plate on day one. On day two, cells were transfected with 200-300 ng of plasmid (pNTM-Flag containing gene of interest) using 2 μL of lipofectamine 2000 transfection reagent (Invitrogen). […]

The test system of the next data set is SALL4 mRNA. As to the kind of experiment: Quantitative RT-PCR of total SALL4 mRNA in H9 hES cells. Type of data set: cell-based, human. The following applies: 10 μM thalidomide, 24 hours, normalized to GAPDH. As to the method: RNA was isolated using the RNeasy Plus mini kit (Qiagen) and cDNA created by reverse transcription using ProtoScript II reverse transcriptase (NEB) following the manufacturer's instructions. The following primer sets from IDT were used with SYBR Green Master Mix (Applied Biosystems) to probe both GAPDH and total SALL4 levels:
Analysis was performed on a CFX Connect Real-Time PCR System (Bio-Rad) in a white 96-well PCR plate. Relative expression levels were calculated using the […] method.

In a further data set the test system is Flag-hsSALL4. As to the kind of experiment: Western blot of transiently transfected Flag-hsSALL4 (WT or mutant) in Kelly cells. It is filed as cell-based, human. As to conditions: 24 hours. As to the method:
as §1, with “Cells were treated with compounds as indicated and incubated for 24 hours, or as indicated. Samples” for “Samples”
as §2
For transient transfection, 0.2 million cells were seeded per well in a 12 well plate on day one. On day two, cells were transfected with 200-300 ng of plasmid (pNTM-Flag containing gene of interest) using 2 μL of lipofectamine 2000 transfection reagent (Invitrogen). On day three, desired concentration of IMiD was added to each well and cells were harvested after 24 hours for western blot analysis using the protocol described above.

Setting [4] is: Kelly, SK-N-DZ, HEK293T and H661 cells, increasing concentrations.

Sequence of SALL4 ZnF domains and DDB1ΔB-CRBN (Q96SW2 whole entry, stated change not applied, the tested form may be a part): as the sequence (Q96SW2 whole entry) above
Sequence of SALL4 ZnF domains and DDB1ΔB-CRBN (Q9UJQ4 402-436, stated change not applied): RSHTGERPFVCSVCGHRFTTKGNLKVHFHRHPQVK
Sequence of Flag-mmSALL4 (Q8BX22 whole entry): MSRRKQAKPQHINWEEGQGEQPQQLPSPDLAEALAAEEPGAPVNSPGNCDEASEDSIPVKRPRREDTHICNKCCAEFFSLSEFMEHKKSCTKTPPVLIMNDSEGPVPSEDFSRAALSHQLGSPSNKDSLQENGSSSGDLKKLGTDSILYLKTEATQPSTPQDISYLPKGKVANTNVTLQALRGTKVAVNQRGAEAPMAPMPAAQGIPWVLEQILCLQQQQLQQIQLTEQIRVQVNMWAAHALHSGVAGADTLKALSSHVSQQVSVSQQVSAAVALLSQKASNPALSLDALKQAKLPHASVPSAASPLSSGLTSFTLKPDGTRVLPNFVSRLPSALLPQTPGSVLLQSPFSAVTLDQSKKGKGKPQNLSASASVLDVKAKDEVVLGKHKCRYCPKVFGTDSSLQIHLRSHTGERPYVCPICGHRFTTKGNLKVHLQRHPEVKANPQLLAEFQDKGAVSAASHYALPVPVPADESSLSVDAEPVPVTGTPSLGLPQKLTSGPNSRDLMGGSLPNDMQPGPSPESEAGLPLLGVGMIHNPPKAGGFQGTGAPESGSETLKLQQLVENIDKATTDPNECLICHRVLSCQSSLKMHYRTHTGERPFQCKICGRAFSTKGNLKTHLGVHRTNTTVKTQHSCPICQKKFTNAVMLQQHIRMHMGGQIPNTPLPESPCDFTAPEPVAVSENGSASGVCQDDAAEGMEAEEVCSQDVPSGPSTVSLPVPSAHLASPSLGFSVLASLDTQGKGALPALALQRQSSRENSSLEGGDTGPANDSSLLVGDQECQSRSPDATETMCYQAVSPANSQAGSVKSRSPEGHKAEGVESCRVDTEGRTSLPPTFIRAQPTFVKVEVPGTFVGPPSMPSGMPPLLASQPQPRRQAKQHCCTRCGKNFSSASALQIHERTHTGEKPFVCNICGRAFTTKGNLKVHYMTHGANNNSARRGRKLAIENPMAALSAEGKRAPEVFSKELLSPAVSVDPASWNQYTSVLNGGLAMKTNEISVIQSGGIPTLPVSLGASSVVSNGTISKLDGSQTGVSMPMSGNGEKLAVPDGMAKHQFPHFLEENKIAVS
Sequence of Flag-mmSALL4 (Q96SW2 whole entry): as the sequence (Q96SW2 whole entry) above
Sequence of Flag-mmSALL4 (Q16531 2-1140 partner limits assumed): as the sequence (Q16531 2-1140 partner limits assumed) above

`O=C1CC[C@H](N2Cc3c(OCc4ccc(CN5CCOCC5)cc4)cccc3C2=O)C(=O)N1` [CC-220]: the “degradation of ZnF targets including SALL4 (proteomics)” value in data set [1] (SK-N-DZ cells, 0.1 μM CC-220, 1 μM dBET57, 5 hours (FIG. 6C)) is reported as “effective inducers of ZnF targets including SALL4 degradation”.
`NS(=O)(=O)OC[C@@H]1C[C@@H](n2ccc3c(N[C@H]4CCc5ccccc54)ncnc32)C[C@@H]1O` [MLN4924]: the “effect of co-treatment on IMiD-induced SALL4 degradation” value on SALL4 (Kelly) is given as “abrogated”. In addition, the “effect of co-treatment on IMiD-induced degradation of targets (rescue proteomics)” value in data set [1] (SK-N-DZ cells, 1 μM pomalidomide + 5 μM MLN4924, 5 hours) is listed as “fully abrogated IMiD-induced degradation of targets”.
In the case of `NS(=O)(=O)OC[C@H]1C[C@@H](Nc2ccnc3cc(-c4cccc(SC(F)(F)F)c4)nn23)[C@H](O)[C@@H]1O` [MLN7243], the “effect of co-treatment on IMiD-induced SALL4 degradation” value at SALL4 (Kelly) is recorded as “abrogated”.
With `CC(C)C[C@H](NC(=O)[C@H](Cc1ccccc1)NC(=O)c1cnccn1)B(O)O` [bortezomib], the “effect of co-treatment on IMiD-induced SALL4 degradation” value at SALL4 (Kelly) is recorded as “abrogated”.
For `Nc1cccc2c1CN(C1CCC(=O)NC1=O)C2=O` (stereo not shown) [lenalidomide], in data set [2], the “plasma half-life (t1/2)” value is roughly 3 h.
For the compound `Nc1cccc2c1C(=O)N(C1CCC(=O)NC1=O)C2=O` (stereo not shown) [pomalidomide], the “rank order in binding observed with ZnF2” value in data set [3] is on record as “Pom >Thal>>Len”. On SALL4 (increasing concentrations), the “SALL4 degradation in CRBN−/− cells” value is given as “no degradation of SALL4 was observed”. Besides, at SALL4 (H9 hESC, increasing doses), the “SALL4 protein levels by western blot” value is “dose dependent decrease in protein levels”. In addition, on SALL4 (Kelly cells, 1 or 5 μM pomalidomide), the “earliest time of SALL4 degradation post-treatment” value worked out at 4 h. For the same compound, on SALL4 (setting [4]), the “SALL4 protein levels by western blot” value is recorded as “dose-dependent decrease”. For the same compound, in data set [1] (H9 hESC, 5 hours, 5 μM lenalidomide, 1 μM pomalidomide), the “further proteins degraded in proteomics” value is “degradation of additional targets including the previously characterized zinc finger protein ZFP91 (An et al., 2017), and the largely uncharacterized proteins ZBTB39, FAM83F, WIZ, RAB28, and DTWD1”. Also, in data set [1], the “substrate specificity: proteins degraded across cell lines” value was “robust degradation of ZBTB39, ZFP91, DTWD1, and ZNF653”; the “number of substrates identified (rank order)” value is “Thal <Len<<Pom”. In addition, at mmSALL4, the “degradation of mmSALL4” value is “does not promote degradation of mmSALL4”. Further, in data set [2], the “plasma half-life (t1/2)” value was roughly 9 h and the Cmax is 0.05 µM.
For the compound `O=C1CCC(N2C(=O)c3ccccc3C2=O)C(=O)N1` (stereo not shown) [thalidomide, 2-(2,6-dioxopiperidin-3-yl)-1H-isoindole-1,3(2H)-dione], the “rank order in binding observed with ZnF2” value in data set [3] is given as “Pom >Thal>>Len”. Further, the “degradation of mmSALL4 with humanized ZnF2 domain” value at Flag-mmSALL4 is on record as “degradation was induced”. For the same compound, the “SALL4 degradation at plasma-relevant concentration” value at SALL4 (10 μM) was “effective degradation of SALL4”. The “SALL4 degradation in CRBN−/− cells” value on SALL4 (increasing concentrations) is “no degradation of SALL4 was observed”. Also, the “SALL4 protein levels by western blot” value at SALL4 (H9 hESC, increasing doses) is on record as “dose dependent decrease in protein levels”. Also, at SALL4 (setting [4]), the “SALL4 protein levels by western blot” value is recorded as “dose-dependent decrease”. In the data set on SALL4 mRNA, the “SALL4 mRNA level” value is on record as “does not reduce the level of SALL4 mRNA, but rather upregulates SALL4 mRNA”. For the same compound, in the data set with SALL4 mRNA (listed as Thalidomide), the “SALL4 mRNA level” value is reported as “did not influence the expression of SALL4 mRNA”. Further, in data set [1], the “substrate specificity: proteins degraded across cell lines” value was “robust degradation of the zinc finger transcription factors ZNF692, SALL4, and the ubiquitin ligase RNF166”; the “number of substrates identified (rank order)” value is “Thal <Len<<Pom”. Also, at mmSALL4, the “degradation of mmSALL4” value is “does not promote degradation of mmSALL4”. The “degradation of wild type Flag-hsSALL4” value with Flag-hsSALL4 is “readily degraded”. In addition, in the data set with Flag-hsSALL4 (thalidomide), the “degradation of Flag-SALL4 with G416A or G416N mutations in ZnF2” value is given as “rendered SALL4 stable” and the “degradation of Flag-SALL4 with G600A or G600N mutations in ZnF4” value is given as “readily degraded”. The “plasma concentration in humans” value in data set [2] (human, in vivo) is no more than 10 µM. In data set [2], the “plasma half-life (t1/2)” value was 6 to 8 h and the Cmax is 5 to 10 µM.
